Source: the NIST ThermoML archive (doi:10.1021/je8001267)

Assay: wn = mass fraction of the nth substance listed
Details: Liquid

Cl.N [ammonium chloride (NH4Cl)] + N
mass density [kg/m3]
Details	303.15 K	313.15 K	323.15 K	333.15 K	343.15 K	353.15 K	363.15 K	373.15 K
10000 kPa, w1 = 0.1133	668.2	655.5	642.7	628.8	613.4	597.6	581.2	568.8
10000 kPa, w1 = 0.2224	729.3	716	707.1	694.9	682.5	669.2	654.5	644.4
10000 kPa, w1 = 0.3134	787.8	778.1	767.7	756.3	745.7	735.4	724.1	713.8
10000 kPa, w1 = 0.4285	833	825.9	817.4	809.5	801.9	793.4	784.2	776.9
10000 kPa, w1 = 0.5068	873.3	867.9	860	853.2	846	838	830.5	823.8
15000 kPa, w1 = 0.1133	673.3	660.5	648.4	634.7	620.3	605.7	588.8	577.2
15000 kPa, w1 = 0.2224	733.1	720.5	711.9	699.8	688.1	675.5	661.6	651.7
15000 kPa, w1 = 0.3134	791.5	783.6	772.6	761.1	751.6	741.5	731.7	721.3
15000 kPa, w1 = 0.4285	836.1	828.4	820.9	812.4	805.2	796.6	789.2	781.3
15000 kPa, w1 = 0.5068	877.7	871.7	864.7	857.9	850.6	844	837	830.3
20000 kPa, w1 = 0.1133	677.8	665.3	654.2	640.8	627.1	612.9	596.4	585.5
20000 kPa, w1 = 0.2224	736.6	725.1	715.8	704.3	692.5	680.2	667.3	657.3
20000 kPa, w1 = 0.3134	795.8	786.8	776.3	765.1	755	746.5	736.8	726.2
20000 kPa, w1 = 0.4285	838.2	831	823.4	814.4	807.6	799.5	792	784.1
20000 kPa, w1 = 0.5068	880.4	874.4	867.9	860.5	854.2	847.5	840.5	834
25000 kPa, w1 = 0.1133	682.2	670.1	658.7	646.7	633.1	619.7	603.4	593
25000 kPa, w1 = 0.2224	740.1	729.5	719.7	708.7	696.9	684.7	672.2	662.3
25000 kPa, w1 = 0.3134	798.5	789.7	779.4	768.2	758.3	750.3	741.5	730.7
25000 kPa, w1 = 0.4285	840.8	833.5	825.9	817.9	810	801.9	794.3	786.5
25000 kPa, w1 = 0.5068	883.2	876.6	870.6	863.1	857.4	850.1	843.5	837
30000 kPa, w1 = 0.1133	686.7	674.6	663.4	652.3	638.6	626.1	610.6	600.3
30000 kPa, w1 = 0.2224	743.8	734.2	723.4	712.9	701.2	689.2	677.3	667.2
30000 kPa, w1 = 0.3134	801.6	792.5	782.4	770.8	761.1	754	745.7	734.6
30000 kPa, w1 = 0.4285	842.9	835.6	827.4	820.4	812	804.2	796.4	788.7
30000 kPa, w1 = 0.5068	885.4	878.8	872.8	865.3	859.7	852.7	846	839.6
